Experimental data: patent publication US11414432B2, “Condensed bicyclic heterocyclic derivatives as pest control agents” (Bayer Aktiengesellschaft, priority 2018, dated 2022)

Columns and labels:
[1] = system: Ctenocephalides felis; assay: Ctenocephalides felis oral test; format: in vivo; conditions: adult cat fleas, oral via citrated cattle blood, 100 ppm, after 2 days
Protocol: Ctenocephalides felis—Oral Test
Solvent: dimethyl sulfoxide
To produce a suitable active compound formulation, 10 mg of active compound are mixed with 0.5 ml of dimethyl sulfoxide. Dilution with citrated cattle blood gives the desired concentration.
About 20 unfed adult cat fleas (Ctenocephalides felis) are placed into a chamber which is closed at the top and bottom with gauze. A metal cylinder whose bottom end is closed with parafilm is placed onto the chamber. The cylinder contains the blood/active compound formulation, which can be imbibed by the fleas through the parafilm membrane.
After 2 days, the kill in % is determined. 100% means that all of the fleas have been killed; 0% means that none of the fleas have been killed.

[2] = system: Meloidogyne incognita; assay: Meloidogyne incognita test; format: in vivo; conditions: lettuce in sand, egg/larvae suspension, 20 ppm, after 14 days
Protocol: Meloidogyne incognita Test Solvent: 125.0 parts by weight of acetone To produce a suitable active compound formulation, 1 part by weight of active compound is mixed with the stated amount of solvent and the concentrate is diluted to the desired concentration with water. Vessels are filled with sand, active compound solution, an egg/larvae suspension of the southern root-knot nematode (Meloidogyne incognita) and lettuce seeds. The lettuce seeds germinate and the plants develop. The galls develop on the roots. After 14 days, the nematicidal efficacy in % is determined by the formation of galls. 100% means that no galls were found; 0% means that the number of galls on the treated plants corresponds to the untreated control.

[3] = system: Myzus persicae; assay: Myzus persicae oral test; format: in vivo; conditions: mixed population, oral through parafilm, 4 ppm, after 5 days
Protocol: Myzus persicae—Oral Test Solvent: 100 parts by weight of acetone To produce a suitable preparation of active compound, 1 part by weight of active compound is dissolved using the specified parts by weight of solvent and made up with water until the desired concentration is attained. 50 μl of the active compound preparation are transferred into microtitre plates and made up to a final volume of 200 μl with 150 μl of IPL41 insect medium (33%+15% sugar). Subsequently, the plates are sealed with parafilm, which a mixed population of green peach aphids (Myzus persicae) within a second microtitre plate is able to puncture and imbibe the solution through. After 5 days, the efficacy in % is determined. 100% means that all the aphids have been killed; 0% means that no aphids have been killed.

[4] = log P by HPLC on reversed-phase column (C18), acidic range; format: physicochemical; conditions: formic acid in water/acetonitrile, LC-UV
Protocol: The log P values were determined according to EEC Directive 79/831 Annex V.A8 by HPLC (high-performance liquid chromatography) on a reversed-phase column (C18) using the following methods: ^[a] […] Calibration was carried out using a homologous series of straight-chain alkan-2-ones (having 3 to 16 carbon atoms) with known log P values. The values between successive alkanones are determined by linear regression.

[5] = system: Spodoptera frugiperda; assay: Spodoptera frugiperda spray test; format: in vivo; conditions: caterpillars on maize leaf discs, 100 g/ha, after 7 days
Protocol: Spodoptera frugiperda—Spray Test Solvent: 78.0 parts by weight of acetone • • 1.5 parts by weight of dimethylformamide Emulsifier: alkylaryl polyglycol ether To produce a suitable active compound preparation, 1 part by weight of active compound is dissolved using the stated parts by weight of solvent and made up with water containing an emulsifier concentration of 1000 ppm until the desired concentration is attained. To produce further test concentrations, the formulation is diluted with emulsifier-containing water. Leaf discs of maize (Zea mays) are sprayed with an active compound formulation of the desired concentration and, after drying, populated with caterpillars of the fall armyworm (Spodoptera frugiperda). After 7 days, the efficacy in % is determined. 100% means that all the caterpillars have been killed; 0% means that no caterpillar has been killed.

[6] = system: Diabrotica balteata; assay: Diabrotica balteata spray test; format: in vivo; conditions: beetle larvae on germinated wheat grains, 160 μg/cavity, after 7 days
Protocol: Diabrotica balteata—Spray Test Solvent: 78 parts by weight of acetone • • 1.5 parts by weight of dimethylformamide Emulsifier: alkylaryl polyglycol ether To produce a suitable active compound preparation, 1 part by weight of active compound is dissolved using the stated parts by weight of solvent and made up with water containing an emulsifier concentration of 1000 ppm until the desired concentration is attained. To produce further test concentrations, the formulation is diluted with emulsifier-containing water. Pre-swollen wheat grains (Triticum aestivum) are incubated in a multiwell plate filled with agar and a little water for one day (5 seed grains per cavity). The germinated wheat grains are sprayed with an active compound preparation of the desired concentration. Subsequently, each cavity is infected with 10-20 beetle larvae of Diabrotica balteata. After 7 days, the efficacy in % is determined. 100% means that all wheat plants have grown as in the untreated, uninfected control; 0% means that no wheat plant has grown.

[7] = system: Myzus persicae; assay: Myzus persicae spray test; format: in vivo; conditions: Chinese cabbage leaf discs, all stages, 100 g/ha, after 5 days
Protocol: Myzus persicae—Spray Test Solvent: 78 parts by weight of acetone • • 1.5 parts by weight of dimethylformamide Emulsifier: alkylaryl polyglycol ether To produce a suitable active compound preparation, 1 part by weight of active compound is dissolved using the stated parts by weight of solvent and made up with water containing an emulsifier concentration of 1000 ppm until the desired concentration is attained. To produce further test concentrations, the formulation is diluted with emulsifier-containing water. Discs of Chinese cabbage leaves (Brassica pekinensis) infested by all stages of the green peach aphid (Myzus persicae) are sprayed with an active compound formulation of the desired concentration. After 5 days, the efficacy in % is determined. 100% means that all the aphids have been killed; 0% means that no aphids have been killed.

| chromatographic logP [4] | SMILES | efficacy [3] [%] | efficacy [5] [%] | further results |
| --- | --- | --- | --- | --- |
| 2.8 | CCS(=O)(=O)c1c(-c2nc3cc(C(F)(F)F)n(C)c(=O)c3n2C)nn2cc(C3(C#N)CC3)ccc12 [Example I-01] | 100 |  | efficacy (kill in %) [1]: 97%; nematicidal efficacy (formation of galls) [2]: 100% |
| 3.37 | Cn1c(C(F)(F)F)cc2nc(-c3nn4cc(C5(C#N)CC5)ccc4c3Br)n(C)c2c1=O |  |  |  |
|  | CCS(=O)(=O)c1c(-c2nc3cc(C(F)(F)F)n(C)c(=O)c3n2C)nn2cc(CC#N)ccc12 [Example I-02] | 100 | 100 |  |
|  | CCS(=O)(=O)c1c(-c2nc3cc(C(F)(F)F)n(C)c(=O)c3n2C)nn2cc(C3CC3)ccc12 [Example I-03] | 100 | 100 | efficacy [6]: 100%; efficacy [7]: 90% |
| 1.55 | N#CC1(c2ccc3c(Br)c(C(=O)O)nn3c2)CC1 [3-Bromo-6-(1-cyanocyclopropyl)pyrazolo[1,5-a]pyridine-2-carboxylic Acid] |  |  |  |
